Common to all, as to type: cell-based
For test [1], the system named is nuclear localization of NF-κB induced by LPS in THP1 cells. In words: Cellular phenotype screening in a 96-well microplate: imaging cell sorter sorting, then enrichment of first barcode nucleic acid sequences. To be noted: sorted for absence of NF-κB nuclear localization under LPS stimulation; value above 1 = more concentrated than before sorting; TAK242 at 30 μM; FIG. 21. As to the method:
In accordance with the schematic diagram illustrated in FIG. 18, a search was carried out for test targets which cause a desired phenotypic change (in the example of FIG. 18, test substances which inhibit nuclear localization of NF-κB induced by LPS).
Specifically, in each well of a 96-well microplate, the first barcode nucleic acids were attached to cells (THP1 cells) according to the method described in Reference Example 1 and further brought into contact with test substances. At this time, different types and concentrations of the test substance and different types of the first barcode nucleic acids were used in each well. Due to this, 96 types of test targets (24 types of test substances×4 types of concentrations) were associated with 96 types of first barcode nucleic acids which are attached to the cells (THP1 cells). […]
Next, in the same manner as the examples described above, a single cell analysis was performed on the cell mixture solution sorted and recovered by the imaging cell sorter. Specifically, when reading out the DNA barcodes modifying each cell and cell-derived genetic information, the Chromium Controller apparatus and the Single Cell 3′ Reagent Kit v3 manufactured by 10× Genomics, which is a single cell analysis technology using a droplet technique as in Example 5 and Example 6, were used. […]

The subject of test [2] is nuclear localization of NF-κB in THP1 cells. In words: Nuclear localization score of sorted cells by image flow cytometry. To be noted: cells treated with LPS and test substance (TAK242 30 μM); higher value indicates higher degree of nuclear localization; FIG. 22. As to the method:
The photographic images of the cells were captured by an image flow cytometry and the nuclear localization scores were also calculated by the imaging flow cytometry. Regarding the nuclear localization scores, a higher value indicates a higher degree of nuclear localization.
(In general: Flow cytometry measures light scatter and fluorescence of single cells or particles in a stream.)

The subject of test [3] is NFκB protein nuclear localization in THP1 cells. In words: NFκB protein localization by immunostaining and fluorescent light microscope in cells treated with the drug. To be noted: LPS 2 μg/mL, 2 hours at 37 degrees, fluorescent light microscope, FIG. 7. As to the method: Next, cells collected by centrifugation in advance were added to the tube 1 and incubated. The cells used at this time were THP1 cells and the cell concentration was set to 1×10^7 cells/mL. The incubation was carried out for 5 minutes at room temperature.
Cells were resuspended in RPM1-1640 medium with 10% FBS and 50 μM 2-mercaptoethanol in the tube 1 and the tube 2, respectively. Next, as a drug, lipopolysaccharide (LPS) suspended in dimethyl sulfoxide (DMSO) was added to tube 1 only, at a final concentration of 2 μg/mL. In the tube 2, only DMSO, the solvent for the drug, was added. Next, the tube 1 and the tube 2 were incubated for 2 hours at 37 degrees in CO2, respectively. Through the experiment up to here, the drug condition whether the drug LPS is present or not, was respectively associated to each of the cells by corresponding each cell to the first barcode nucleic acid type A or the second barcode nucleic acid type B.
Next, some cells were collected from the tube 1 and the tube 2, respectively. […]

As to `CCOC(=O)C1=CCCC[C@H]1S(=O)(=O)Nc1ccc(F)cc1Cl` [TAK242], the “enrichment level of the first barcode nucleic acid sequence of the sorted cells” value in test [1] is “approximately 1.5 fold”. Besides, the nuclear localization score in test [2] is 0.92.
For `C=C1C(=O)O[C@@H]2/C=C(\C)CC/C=C(\C)CC[C@@H]12` [Costunolide] the same measures were “significantly enriched” and 0.23.
Turning to lipopolysaccharide [LPS], the “localization of NFκB protein” value in test [3] is reported as “almost all of the NFκB protein was localized in the nucleus”. In addition, the nuclear localization score in test [2] stood at 0.30.
